The source of these data is patent US20140228349A1, “5,7-SUBSTITUTED-IMIDAZO[1,2-C]PYRIMIDINES” (Array BioPharma Inc., priority 2011, published 2014).

Common to all, as to format: biochemical
One experiment addresses T1, JAK1 (Homo sapiens, UniProt P23458).
T1 construct: purchased Invitrogen Corporation, Carlsbad, Calif; IVGN PV4775
The experiment can be described thus: JAK1 Inhibition Assay (Omnia kinase fluorescence peptide substrate). The note with it: averaged IC50 ranges; 40 μM (Km app) or 1 mM ATP, 15 nM JAK1. An outline of the steps:
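15 nM JAK1, 8 μM Omnia Y12 peptide, 40 μM (Km app) or 1 mM ATP; 25 mM HEPES pH 7.4, 10 mM MgCl2, 2% DMSO. Fluorescence (ex 360/em 485 nm) read every 50 s over 45 min. IC50 by 4-parameter fit of percent of control, top dose 10 μM.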

Another experiment concerns the target T2, JAK3 (Homo sapiens, UniProt P52333).
T2 construct: purchased Invitrogen Corporation, Carlsbad, Calif; IVGN PV4080
T2 sequence (P52333 1-1124): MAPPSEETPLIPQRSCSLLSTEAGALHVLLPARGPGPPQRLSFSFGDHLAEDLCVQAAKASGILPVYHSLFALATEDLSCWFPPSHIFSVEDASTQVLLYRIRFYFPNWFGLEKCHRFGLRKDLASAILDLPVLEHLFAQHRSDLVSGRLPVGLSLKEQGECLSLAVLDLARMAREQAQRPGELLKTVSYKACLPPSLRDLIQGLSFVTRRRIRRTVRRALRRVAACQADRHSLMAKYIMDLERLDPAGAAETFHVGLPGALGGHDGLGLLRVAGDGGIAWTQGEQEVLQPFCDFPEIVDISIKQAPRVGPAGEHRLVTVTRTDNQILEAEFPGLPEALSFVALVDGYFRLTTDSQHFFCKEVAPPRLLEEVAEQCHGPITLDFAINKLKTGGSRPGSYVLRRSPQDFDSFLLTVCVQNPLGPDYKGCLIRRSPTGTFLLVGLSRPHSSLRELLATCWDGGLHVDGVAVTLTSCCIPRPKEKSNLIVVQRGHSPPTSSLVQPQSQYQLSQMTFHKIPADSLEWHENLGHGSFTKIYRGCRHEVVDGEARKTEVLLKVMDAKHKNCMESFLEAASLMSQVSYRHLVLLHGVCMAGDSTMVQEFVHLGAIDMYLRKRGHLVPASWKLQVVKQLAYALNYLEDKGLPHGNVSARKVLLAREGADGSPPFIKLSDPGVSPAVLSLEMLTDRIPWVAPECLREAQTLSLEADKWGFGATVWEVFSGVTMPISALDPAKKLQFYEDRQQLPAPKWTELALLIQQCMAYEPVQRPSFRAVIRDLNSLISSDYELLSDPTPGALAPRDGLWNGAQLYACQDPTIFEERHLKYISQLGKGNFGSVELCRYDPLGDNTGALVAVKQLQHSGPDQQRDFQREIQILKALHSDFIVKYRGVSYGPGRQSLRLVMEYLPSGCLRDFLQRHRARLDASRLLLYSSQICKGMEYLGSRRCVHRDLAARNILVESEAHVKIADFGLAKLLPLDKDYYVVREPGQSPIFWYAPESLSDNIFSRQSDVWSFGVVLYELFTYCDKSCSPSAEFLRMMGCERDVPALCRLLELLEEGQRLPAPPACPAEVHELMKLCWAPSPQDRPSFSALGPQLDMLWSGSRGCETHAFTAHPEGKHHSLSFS
Kind of experiment: JAK3 Inhibition Assay (Omnia kinase fluorescence peptide substrate). The note with it: averaged IC50 ranges; 10 μM (Km app) or 1 mM ATP, 2.5 nM JAK3. An outline of the steps: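 IC50 is the concentration giving 50 percent of control on a 4-parameter logistic fit of 10-point, 3-fold dilutions from a 10 μM top dose, at 2% final DMSO. Kinetic Sox fluorescence (360/485 nm) was monitored every 50 s for 45 min. Mix: JAK3 2.5 nM, Omnia Y7 peptide 10 μM, ATP 10 μM (Km app) or 1 mM, in HEPES pH 7.4 buffer with MgCl2, Triton X-100 and DTT.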

The next experiment has as its target T3, JAK2 (Homo sapiens, UniProt O60674).
T3 construct: purchased Invitrogen Corporation, Carlsbad, Calif; IVGN PV4288
The experiment can be described thus: JAK2 Inhibition Assay (Omnia kinase fluorescence peptide substrate). The note with it: averaged IC50 ranges; 25 μM (Km app) or 1 mM ATP, 5 nM JAK2.

For a further experiment, the target named is T4, Human Tyk2 kinase domain (Homo sapiens, UniProt P29597).
T4 construct: comprising amino acids 886 to 1187; His10 (10 histidine residues) (C, cleaved yes); made in house
T4 sequence (P29597 886-1187): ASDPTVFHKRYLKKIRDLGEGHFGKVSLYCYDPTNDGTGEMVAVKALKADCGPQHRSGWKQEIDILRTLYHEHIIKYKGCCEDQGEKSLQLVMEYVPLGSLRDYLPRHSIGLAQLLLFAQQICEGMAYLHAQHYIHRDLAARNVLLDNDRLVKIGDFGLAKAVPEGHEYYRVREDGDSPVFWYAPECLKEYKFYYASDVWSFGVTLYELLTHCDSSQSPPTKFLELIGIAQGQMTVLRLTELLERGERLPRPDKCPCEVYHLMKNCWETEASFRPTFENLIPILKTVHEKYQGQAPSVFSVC
Kind of experiment: Tyk2 Inhibition Assay (Omnia kinase fluorescence peptide substrate). The note with it: averaged IC50 ranges; 10 μM (Km app) or 1 mM ATP, 2 nM Tyk2. An outline of the steps:
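Phosphorylation of 8 μM Omnia Y12 peptide followed kinetically by Sox fluorescence, ex 360/em 485 nm, every 50 s for 45 min. Enzyme: 2 nM Tyk2 kinase domain (aa 886–1187, His tag removed); ATP at 10 μM (Km app) or 1 mM; buffer HEPES pH 7.4 with MgCl2, Triton X-100, DTT. 10-point curves up to 10 μM, IC50 from 4-parameter logistic fit.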

T1 sequence (P23458 whole entry): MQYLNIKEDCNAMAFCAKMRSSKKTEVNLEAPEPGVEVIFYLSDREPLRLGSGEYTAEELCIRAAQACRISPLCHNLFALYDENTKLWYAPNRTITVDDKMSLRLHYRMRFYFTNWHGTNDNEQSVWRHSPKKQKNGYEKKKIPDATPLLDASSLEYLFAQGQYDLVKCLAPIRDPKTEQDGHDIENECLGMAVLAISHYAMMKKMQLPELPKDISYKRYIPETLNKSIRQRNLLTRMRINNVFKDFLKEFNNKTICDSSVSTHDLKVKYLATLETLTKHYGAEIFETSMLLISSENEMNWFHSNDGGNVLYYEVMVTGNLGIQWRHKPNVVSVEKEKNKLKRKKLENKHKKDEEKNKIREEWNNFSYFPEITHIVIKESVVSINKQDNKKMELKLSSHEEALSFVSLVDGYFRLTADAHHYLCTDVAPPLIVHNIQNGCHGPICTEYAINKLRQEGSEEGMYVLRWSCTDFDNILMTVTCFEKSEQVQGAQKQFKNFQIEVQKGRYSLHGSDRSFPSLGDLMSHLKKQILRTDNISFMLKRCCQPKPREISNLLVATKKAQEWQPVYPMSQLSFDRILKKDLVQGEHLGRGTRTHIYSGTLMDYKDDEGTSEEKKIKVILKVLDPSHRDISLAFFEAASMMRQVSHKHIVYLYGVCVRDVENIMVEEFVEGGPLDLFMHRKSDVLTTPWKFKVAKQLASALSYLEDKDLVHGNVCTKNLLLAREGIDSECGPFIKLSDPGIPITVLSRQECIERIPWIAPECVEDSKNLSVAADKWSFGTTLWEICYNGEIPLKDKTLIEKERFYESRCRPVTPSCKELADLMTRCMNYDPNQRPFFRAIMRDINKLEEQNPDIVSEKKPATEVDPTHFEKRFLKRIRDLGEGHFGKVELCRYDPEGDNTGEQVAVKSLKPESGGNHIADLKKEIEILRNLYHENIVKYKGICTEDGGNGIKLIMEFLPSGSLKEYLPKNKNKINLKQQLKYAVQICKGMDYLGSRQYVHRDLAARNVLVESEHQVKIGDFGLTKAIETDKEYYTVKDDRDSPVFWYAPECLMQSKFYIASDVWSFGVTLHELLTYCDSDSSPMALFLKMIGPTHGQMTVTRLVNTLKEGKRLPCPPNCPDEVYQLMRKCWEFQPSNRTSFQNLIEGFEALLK
T3 sequence (O60674 whole entry): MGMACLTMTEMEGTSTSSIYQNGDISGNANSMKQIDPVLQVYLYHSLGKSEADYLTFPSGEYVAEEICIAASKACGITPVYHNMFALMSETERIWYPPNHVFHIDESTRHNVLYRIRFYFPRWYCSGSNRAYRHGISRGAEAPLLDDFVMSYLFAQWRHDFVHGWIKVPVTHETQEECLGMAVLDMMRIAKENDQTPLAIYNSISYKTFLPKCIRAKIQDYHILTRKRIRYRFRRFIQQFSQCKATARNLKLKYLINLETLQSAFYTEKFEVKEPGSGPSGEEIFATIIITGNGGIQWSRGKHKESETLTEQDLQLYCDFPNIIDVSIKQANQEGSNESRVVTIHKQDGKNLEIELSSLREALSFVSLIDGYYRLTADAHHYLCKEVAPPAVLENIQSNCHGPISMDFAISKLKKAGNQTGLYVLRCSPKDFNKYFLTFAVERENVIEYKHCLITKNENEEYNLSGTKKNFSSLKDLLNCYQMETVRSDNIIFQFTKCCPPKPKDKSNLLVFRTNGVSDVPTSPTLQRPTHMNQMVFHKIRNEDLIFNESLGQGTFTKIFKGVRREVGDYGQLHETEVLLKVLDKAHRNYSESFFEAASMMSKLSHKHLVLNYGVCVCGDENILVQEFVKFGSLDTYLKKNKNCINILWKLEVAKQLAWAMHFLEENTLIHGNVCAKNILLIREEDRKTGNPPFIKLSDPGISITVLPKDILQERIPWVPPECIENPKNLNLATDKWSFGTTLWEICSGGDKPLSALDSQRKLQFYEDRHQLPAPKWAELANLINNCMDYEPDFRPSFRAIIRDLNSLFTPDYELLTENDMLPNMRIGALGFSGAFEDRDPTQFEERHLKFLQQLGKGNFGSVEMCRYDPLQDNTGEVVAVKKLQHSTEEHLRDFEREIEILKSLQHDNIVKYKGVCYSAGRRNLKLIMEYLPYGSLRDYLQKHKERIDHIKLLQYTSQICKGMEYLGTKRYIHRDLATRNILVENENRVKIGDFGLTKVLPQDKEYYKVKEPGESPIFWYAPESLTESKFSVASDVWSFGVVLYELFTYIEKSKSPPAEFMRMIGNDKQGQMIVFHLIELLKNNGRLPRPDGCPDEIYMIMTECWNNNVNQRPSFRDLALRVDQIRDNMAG

In the case of `CCC(CCCO)n1cc(-c2nc(-c3cnn(C)c3)cc3nccn23)cn1` (stereo not drawn) [Example 65, 4-(4-(7-(1-methyl-1H-pyrazol-4-yl)imidazo[1,2-c]pyrimidin-5-yl)-1H-pyrazol-1-yl)hexan-1-ol], the IC50 was in the range of 100 to 1000 nM at JAK1, 100 to 1000 nM at JAK3, 100 to 1000 nM against JAK2 and 10 to 100 nM against Human Tyk2 kinase domain.

On to `Cn1cc(-c2cc3nccn3c(-c3cnn(C(CCF)C4CCCC4)c3)n2)cn1` (stereo not drawn) [Example 66, 5-(1-(1-cyclopentyl-3-fluoropropyl)-1H-pyrazol-4-yl)-7-(1-methyl-1H-pyrazol-4-yl)imidazo[1,2-c]pyrimidine], for which the IC50 at JAK1 was 100 to 1000 nM; on JAK3, 100 to 1000 nM; against JAK2, 10 to 100 nM; on Human Tyk2 kinase domain, less than 10 nM.

Regarding `CCOCCC(C1CCC1)n1cc(-c2nc(-c3cnn(C)c3)cc3nccn23)cn1` (stereo not drawn) [Example 67, 5-(1-(1-cyclobutyl-3-ethoxypropyl)-1H-pyrazol-4-yl)-7-(1-methyl-1H-pyrazol-4-yl)imidazo[1,2-c]pyrimidine], the IC50 at JAK1 is more than 1000 nM; on JAK3 it was more than 1000 nM; on JAK2, 100 to 1000 nM; against Human Tyk2 kinase domain, 100 to 1000 nM.

As for `Cn1cc(-c2cc3nccn3c(-c3cnn(C(CCO)C4CCC4)c3)n2)cn1` (stereo not drawn) [Example 68, 3-cyclobutyl-3-(4-(7-(1-methyl-1H-pyrazol-4-yl)imidazo[1,2-c]pyrimidin-5-yl)-1H-pyrazol-1-yl)propan-1-ol], the IC50 against JAK1 was more than 1000 nM; at JAK3, more than 1000 nM; on JAK2, more than 1000 nM; against Human Tyk2 kinase domain, 100 to 1000 nM.

Turning to `Cn1cc(-c2cc3nccn3c(-c3cnn(C(CCF)C4CCC4)c3)n2)cn1` (stereo not drawn) [Example 69, 5-(1-(1-cyclobutyl-3-fluoropropyl)-1H-pyrazol-4-yl)-7-(1-methyl-1H-pyrazol-4-yl)imidazo[1,2-c]pyrimidine], the 50% inhibitory concentration (IC50) was 100 to 1000 nM against JAK1, 100 to 1000 nM on JAK3, 10 to 100 nM against JAK2 and less than 10 nM at Human Tyk2 kinase domain.

Consider `COCCC(C1CCCC1)n1cc(-c2nc(-c3cnn(C)c3)cc3nccn23)cn1` (stereo not drawn) [Example 70, 5-(1-(1-cyclopentyl-3-methoxypropyl)-1H-pyrazol-4-yl)-7-(1-methyl-1H-pyrazol-4-yl)imidazo[1,2-c]pyrimidine], for which the IC50 against JAK1 is more than 1000 nM; against JAK3 it was more than 1000 nM; at JAK2, more than 1000 nM; against Human Tyk2 kinase domain it was 100 to 1000 nM.

In the case of `COCCC(C1CCCCC1)n1cc(-c2nc(-c3cnn(C)c3)cc3nccn23)cn1` (stereo not drawn) [Example 71, 5-(1-(1-cyclohexyl-3-methoxypropyl)-1H-pyrazol-4-yl)-7-(1-methyl-1H-pyrazol-4-yl)imidazo[1,2-c]pyrimidine], the IC50 at JAK1, on JAK3, at JAK2 and at Human Tyk2 kinase domain was more than 1000 nM each time.

Turning to `Cn1cc(-c2cc3nccn3c(-c3cnn(C(CCO)C4CCCC4)c3)n2)cn1` (stereo not drawn) [Example 72, 3-cyclopentyl-3-(4-(7-(1-methyl-1H-pyrazol-4-yl)imidazo[1,2-c]pyrimidin-5-yl)-1H-pyrazol-1-yl)propan-1-ol], the IC50 against JAK1 was more than 1000 nM; on JAK3, more than 1000 nM; against JAK2, more than 1000 nM; against Human Tyk2 kinase domain, 100 to 1000 nM.

Regarding `Cn1cc(-c2cc3nccn3c(-c3cnn(C(CCO)C4CCCCC4)c3)n2)cn1` (stereo not drawn) [Example 73, 3-cyclohexyl-3-(4-(7-(1-methyl-1H-pyrazol-4-yl)imidazo[1,2-c]pyrimidin-5-yl)-1H-pyrazol-1-yl)propan-1-ol], the IC50 is more than 1000 nM on JAK1, more than 1000 nM at JAK3, 100 to 1000 nM against JAK2 and 100 to 1000 nM against Human Tyk2 kinase domain.

Turning to `COCCC(C1CC1)n1cc(-c2nc(-c3cnn(C)c3)cc3nccn23)cn1` (stereo not drawn) [Example 74, 5-(1-(1-cyclopropyl-3-methoxypropyl)-1H-pyrazol-4-yl)-7-(1-methyl-1H-pyrazol-4-yl)imidazo[1,2-c]pyrimidine], the concentration for half-maximal inhibition (IC50) was more than 1000 nM at JAK1, more than 1000 nM at JAK3, 100 to 1000 nM at JAK2 and 10 to 100 nM on Human Tyk2 kinase domain.

Regarding `COCCC(C1CCC1)n1cc(-c2nc(-c3cnn(C)c3)cc3nccn23)cn1` (stereo not drawn) [Example 76, 5-(1-(1-cyclobutyl-3-methoxypropyl)-1H-pyrazol-4-yl)-7-(1-methyl-1H-pyrazol-4-yl)imidazo[1,2-c]pyrimidine], the IC50 on JAK1 was more than 1000 nM; against JAK3, more than 1000 nM; against JAK2, 100 to 1000 nM; against Human Tyk2 kinase domain, 100 to 1000 nM.

`COC(=O)CC(c1ccccc1)n1cc(-c2nc(-c3cnn(C)c3)cc3nccn23)cn1` (stereo not drawn) [Example 77, methyl 3-(4-(7-(1-methyl-1H-pyrazol-4-yl)imidazo[1,2-c]pyrimidin-5-yl)-1H-pyrazol-1-yl)-3-phenylpropanoate]: the half-inhibitory concentration (IC50) at JAK1, at JAK3, against JAK2 and on Human Tyk2 kinase domain was 100 to 1000 nM each time.

As to `O=S(=O)(N1CC(CCF)(n2cc(-c3nc(-c4cn[nH]c4)cc4nccn34)cn2)C1)C(F)(F)F` [Example 78, 5-(1-(3-(2-fluoroethyl)-1-((trifluoromethyl)sulfonyl)azetidin-3-yl)-1H-pyrazol-4-yl)-7-(1H-pyrazol-4-yl)imidazo[1,2-c]pyrimidine], the half-inhibitory concentration (IC50) is 10 to 100 nM against JAK1, 100 to 1000 nM against JAK3, 10 to 100 nM against JAK2 and less than 10 nM against Human Tyk2 kinase domain.

Take `Cn1ccc(-c2cc3nccn3c(-c3cnn(C4(CCF)CN(S(=O)(=O)C(F)(F)F)C4)c3)n2)cc1=O` [Example 79, 4-(5-(1-(3-(2-fluoroethyl)-1-((trifluoromethyl)sulfonyl)azetidin-3-yl)-1H-pyrazol-4-yl)imidazo[1,2-c]pyrimidin-7-yl)-1-methylpyridin-2(1H)-one]: the half-maximal inhibitory concentration (IC50) is 100 to 1000 nM on JAK1, 100 to 1000 nM on JAK3, 100 to 1000 nM against JAK2 and 10 to 100 nM against Human Tyk2 kinase domain.

As for `COC(=O)CC(c1ccc(F)cc1)n1cc(-c2nc(-c3cnn(C)c3)cc3nccn23)cn1` (stereo not drawn) [Example 80, methyl 3-(4-fluorophenyl)-3-(4-(7-(1-methyl-1H-pyrazol-4-yl)imidazo[1,2-c]pyrimidin-5-yl)-1H-pyrazol-1-yl)propanoate], the concentration for half-maximal inhibition (IC50) was more than 1000 nM against JAK1, more than 1000 nM against JAK3, 100 to 1000 nM at JAK2 and 100 to 1000 nM against Human Tyk2 kinase domain.

One may read the IC50 as the concentration at which inhibition is half-maximal. Read a low IC50 as inhibition by little substance.
